The Ki is the dissociation constant of the complex between target and ligand, obtained from inhibition or displacement. By half-life is commonly meant the time in which the quantity being followed falls by half. A word on the bioavailability: it is the share of a dose that reaches the circulation, judged against a reference dose that is usually intravenous. As usually defined, the Cmax is the highest concentration seen after dosing.

One data set has as its target Histamine H3 receptor (Homo sapiens, UniProt Q9Y5N1). The experiment in a line: Binding affinity at human histamine H3 receptor expressed in SK-N-MC cells.
In data set [1] the target is Sodium-dependent serotonin transporter (Rattus norvegicus, UniProt P31652). The experiment in a line: Displacement of [3H]citalopram from rat brain SERT. On the technique in general: Loss of bound radioactivity is the signal in a displacement assay; it reports binding, not function.
For data set [2], the system named is Rattus norvegicus. The data set is described as follows: Increase in extracellular dopamine level in rat brain frontal cortex at 1 mg/kg, ip after 8 hrs relative to basal level. The format is functional. To be noted: route intraperitoneal.
Data set [3] in a line: Half life in rat at 1 mg/kg, iv or 10 mg/kg, po. In kind it is ADME, organism-based. The settings on record: in vivo.
The test system of data set [4] is Rattus norvegicus. The experiment in a line: Increase in extracellular serotonin level in rat brain frontal cortex at 1 mg/kg, ip after 8 hrs relative to basal level. The format is functional. To be noted: route intraperitoneal.
Data set [5] has as its system Rattus norvegicus. The experiment in a line: Increase in extracellular dopamine level in rat brain frontal cortex at 1 mg/kg, ip after 24 hrs relative to basal level. The settings on record: route intraperitoneal. In kind it is functional.
Data set [6] is described as follows: Bioavailability in rat 10 mg/kg, po. The format is ADME, organism-based. The settings on record: in vivo.
Data set [7] has as its system Mus musculus. The data set is described as follows: Inhibition of SERT in 5-hydroxytryptophan potentiated head twitch mouse model assessed as increase in head twitch response at 3 mg/kg, ip relative to control. To be noted: route intraperitoneal. Also on record: scale not given: the % may be the effect or the level left. In kind it is functional.
Data set [8] can be described thus: Cmax in mouse brain at 30 mg/kg, ip.
The test system of data set [9] is Mus musculus. The data set is described as follows: Inhibition of SERT in ip dosed 5-hydroxytryptophan potentiated head twitch mouse model assessed as increase in head twitches after 24 hrs. In kind it is functional, organism-based.
In data set [10] the test system is Rattus norvegicus. The experiment in a line: Increase in extracellular serotonin level in rat brain frontal cortex at 1 mg/kg, ip after 24 hrs relative to basal level. The settings on record: route intraperitoneal. In kind it is functional.
Data set [11] concerns Mus musculus. The data set is described as follows: Inhibition of SERT in 5-hydroxytryptophan potentiated head twitch mouse model assessed as increase in head twitch response at 10 mg/kg, ip relative to control. In kind it is functional. Also on record: scale not given: the % may be the effect or the level left. The settings on record: route intraperitoneal.

Chain of Sodium-dependent serotonin transporter (P31652 whole entry): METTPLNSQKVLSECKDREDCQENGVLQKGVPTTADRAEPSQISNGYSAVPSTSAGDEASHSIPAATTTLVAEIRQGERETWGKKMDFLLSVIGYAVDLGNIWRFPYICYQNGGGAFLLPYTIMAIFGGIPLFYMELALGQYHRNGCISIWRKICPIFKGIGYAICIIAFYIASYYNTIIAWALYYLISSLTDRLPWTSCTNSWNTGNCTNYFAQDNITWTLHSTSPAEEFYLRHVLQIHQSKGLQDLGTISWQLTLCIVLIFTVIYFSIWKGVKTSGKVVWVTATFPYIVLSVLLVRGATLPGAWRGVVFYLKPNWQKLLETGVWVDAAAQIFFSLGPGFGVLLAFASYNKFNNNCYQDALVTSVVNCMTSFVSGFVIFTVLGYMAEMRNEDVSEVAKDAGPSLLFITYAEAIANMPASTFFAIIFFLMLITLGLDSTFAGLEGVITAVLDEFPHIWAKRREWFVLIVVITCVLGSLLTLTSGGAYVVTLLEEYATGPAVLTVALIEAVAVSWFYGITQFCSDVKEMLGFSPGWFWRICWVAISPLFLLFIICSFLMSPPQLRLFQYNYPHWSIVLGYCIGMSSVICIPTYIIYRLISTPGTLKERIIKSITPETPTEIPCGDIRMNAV
Chain of Histamine H3 receptor (Q9Y5N1 whole entry): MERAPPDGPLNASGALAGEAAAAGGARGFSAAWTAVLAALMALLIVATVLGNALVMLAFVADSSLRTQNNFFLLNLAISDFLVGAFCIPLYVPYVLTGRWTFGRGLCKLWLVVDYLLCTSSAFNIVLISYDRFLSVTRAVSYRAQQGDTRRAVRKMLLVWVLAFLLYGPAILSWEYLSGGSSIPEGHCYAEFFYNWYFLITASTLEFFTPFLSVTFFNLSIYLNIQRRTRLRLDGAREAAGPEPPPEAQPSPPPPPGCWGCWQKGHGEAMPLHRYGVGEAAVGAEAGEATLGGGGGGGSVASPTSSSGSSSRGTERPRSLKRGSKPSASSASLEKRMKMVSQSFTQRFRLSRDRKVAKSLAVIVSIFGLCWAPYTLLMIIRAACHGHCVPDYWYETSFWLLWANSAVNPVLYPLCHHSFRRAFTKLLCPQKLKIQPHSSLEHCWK

Consider `COc1cccc(C2CN3CCCC3c3cc(OCCCN4CCCCC4)ccc32)c1` (racemic), for which the results for the Ki (at Histamine H3 receptor; in [1]) were 1.7 nM and 4.7 nM, respectively.

For the molecule `COc1ccccc1C1CN2CCCC2c2cc(OCCCN3CCCCC3)ccc21` (racemic), the Ki on Histamine H3 receptor was 1.3 nM; in [1], 14 nM.

Regarding `Oc1ccc(C2CN3CCCC3c3cc(OCCCN4CCCCC4)ccc32)cc1` (racemic), the results for the Ki (at Histamine H3 receptor; in data set [1]) were 1.7 nM and 9.3 nM, respectively.

In the case of `Oc1ccccc1C1CN2CCCC2c2cc(OCCCN3CCCCC3)ccc21` (racemic), the Ki on Histamine H3 receptor came to 3.7 nM; in data set [1], 20.7 nM.

For `CN(C)c1ccc(C2CN3CCCC3c3cc(OCCCN4CCCCC4)ccc32)cc1` (racemic), the inhibition constant (Ki) stood at 1.6 nM at Histamine H3 receptor and 3.3 nM in data set [1].

Turning to `FC(F)(F)c1ccc(C2CN3CCCC3c3cc(OCCCN4CCCCC4)ccc32)cc1` (racemic), the inhibition constant (Ki) on Histamine H3 receptor turned out to be 4.7 nM; in data set [1], 26.7 nM.

As to `c1ccc(C2CN3CCCC3c3cc(OCCCN4CCCCC4)ccc32)cc1` (racemic), the Ki worked out at 0.9 nM on Histamine H3 receptor and 2 nM in [1].

As to `CSc1ccc(C2CN3CCCC3c3cc(OCCCN4CCCCC4)ccc32)cc1` (racemic), the results for the Ki (at Histamine H3 receptor; in [1]) were 2.5 nM and 3.3 nM, respectively.

Take `Cc1ccc(C2CN3CCCC3c3cc(OCCCN4CCCCC4)ccc32)cc1` (racemic): the results for the Ki (on Histamine H3 receptor; in data set [1]) were 2 nM and 3 nM, respectively.

With `C#Cc1cccc(C2CN3CCCC3c3cc(OCCCN4CCCCC4)ccc32)c1` (racemic), the inhibition constant Ki at Histamine H3 receptor is 2 nM; in data set [1] it was 8.7 nM.

Regarding `Clc1ccccc1C1CN2CCCC2c2cc(OCCCN3CCCCC3)ccc21` (racemic), the Ki worked out at 2.3 nM on Histamine H3 receptor and 8.7 nM in data set [1].

Regarding `FC(F)(F)c1cccc(C2CN3CCCC3c3cc(OCCCN4CCCCC4)ccc32)c1` (racemic), the Ki turned out to be 2 nM on Histamine H3 receptor and 21.7 nM in data set [1].

On to `Clc1ccc(C2CN3CCCC3c3cc(OCCCN4CCCCC4)ccc32)cc1` (racemic), for which the Ki on Histamine H3 receptor was found to be 2.2 nM; in data set [1], 6.3 nM.

As for `Fc1ccc(C2CN3CCCC3c3cc(OCCCN4CCCCC4)ccc32)cc1` (racemic), the results for the Ki (on Histamine H3 receptor; in data set [1]) were 1.7 nM and 3.7 nM, respectively.

Consider `N#Cc1ccc(C2CN3CCCC3c3cc(OCCCN4CCCCC4)ccc32)cc1` (racemic), for which the values for the Ki (on Histamine H3 receptor; in [1]) were 1.2 nM and 24.7 nM, respectively.

Consider `Oc1cccc(C2CN3CCCC3c3cc(OCCCN4CCCCC4)ccc32)c1` (racemic), for which the values for the Ki (at Histamine H3 receptor; in data set [1]) were 0.7 nM and 1.3 nM, respectively.

With `FC(F)(F)Oc1ccc(C2CN3CCCC3c3cc(OCCCN4CCCCC4)ccc32)cc1` (racemic), the figures for the inhibitory constant (Ki) (on Histamine H3 receptor; in [1]) were 4 nM and 11 nM, respectively.

In the case of `O=[N+]([O-])c1ccc(C2CN3CCCC3c3cc(OCCCN4CCCCC4)ccc32)cc1` (racemic), the inhibition constant (Ki) at Histamine H3 receptor stood at 1.3 nM; in [1], 5.3 nM.

Take `COc1ccc(C2CN3CCCC3c3cc(OCCCN4CCCCC4)ccc32)cc1` (racemic): the Activity in the data set on Rattus norvegicus [2] was 300%; with Rattus norvegicus [4], 500%; in the data set with Rattus norvegicus [5], 300%; with Mus musculus [7] it was 384%; in the data set with Mus musculus [9], “Dose-dependent effect”; in the data set on Rattus norvegicus [10], 500%. In addition, the Activity in the data set on Mus musculus [11] turned out to be 661%. Also, the half-life in [3] was 15.7 h. This molecule returned a bioavailability in data set [6] of 16%. Also, the highest concentration (Cmax) in data set [8] was determined as 1280 nM.

Turning to `Clc1cccc(C2CN3CCCC3c3cc(OCCCN4CCCCC4)ccc32)c1` (racemic), the inhibitory constant (Ki) at Histamine H3 receptor came out at 1.2 nM; in data set [1], 4 nM.

`C#Cc1ccc(C2CN3CCCC3c3cc(OCCCN4CCCCC4)ccc32)cc1` (racemic): the Ki at Histamine H3 receptor stood at 4 nM; in data set [1] it was 7 nM.

These data come from ChEMBL document CHEMBL1139168, “Pyrrolidino-tetrahydroisoquinolines as potent dual H3 antagonist and serotonin transporter inhibitors” (Bioorg Med Chem Lett, 2007).
